Data from PMC7127696 (Bioorganic & Medicinal Chemistry, 2015).
Where two headings read alike, the source gives them in different places.

Assays:
Sindbis virus = assay: CPE reduction assay, Sindbis virus in Vero cells; assay type: cell-based; settings: for EC50: Sindbis virus, Vero, read-out: Antiviral EC50 value, Sindbis virus
Vero cells = settings: microscopy
Para-influenza-3 virus = assay: CPE reduction assay, para-influenza-3 virus in Vero cells; assay type: cell-based; settings: for EC50: Vero, read-out: Antiviral EC50 value, Para-influenza-3 virus
HeLa cells = settings: microscopy
Punta Toro virus = assay: CPE reduction assay, Punta Toro virus in Vero cells; assay type: cell-based
Reovirus-1 = assay: CPE reduction assay, reovirus-1 in Vero cells; assay type: cell-based; settings: for EC50: Vero, read-out: Antiviral EC50 value, Reovirus-1
[1] = test system: HEL: human embryonic lung fibroblast cells; settings: microscopy
[2] = test system: MDCK: Madin-Darby canine kidney cells; settings: microscopy
[3] = test system: Respiratory syncytial virus; assay: CPE reduction assay, respiratory syncytial virus in HeLa cells; assay type: cell-based; settings: for Selectivity index (ratio of MCC to antiviral EC50), Respiratory syncytial virus: value in square brackets
[4] = test system: Vesicular stomatitis virus; assay type: cell-based
Coxsackie B4 virus [5] = assay: CPE reduction assay, Coxsackie B4 virus in HeLa cells; assay type: cell-based
Coxsackie B4 virus [6] = assay: CPE reduction assay, Coxsackie B4 virus in Vero cells; assay type: cell-based
[7] = Vero cells, CPE inhibition, microscopy, mean ± SEM of three tests
[8] = Vero cells, value in square brackets
[9] = Vero cells, CPE inhibition, microscopy
[10] = CPE inhibition, microscopy, mean ± SEM of three tests

Molecule	EC50 (Para-influenza-3 virus)	EC50 (Reovirus-1)	MCC (compound concentration causing minimal changes in cell morphology) [1]	MCC (compound concentration causing minimal changes in cell morphology) [2]	MCC (compound concentration causing minimal changes in cell morphology) (Vero cells)	MCC (compound concentration causing minimal changes in cell morphology) (HeLa cells)	other results
NC(=O)c1ncn([C@@H]2O[C@H](CO)[C@@H](O)[C@H]2O)n1 [Ribavirin, ribavirin, reference compound]	> 250 µM	> 250 µM					EC50 (Sindbis virus): 250 µM; MCC (compound concentration causing minimal changes in cell morphology) (Vero cells; ribavirin data in μM): >250 μM; MCC (compound concentration causing minimal changes in cell morphology) (HeLa cells; ribavirin data in μM): >250 μM; EC50 (Punta Toro virus; Punta Toro virus, Vero, read-out: Antiviral EC50 value, Punta Toro virus): 50 µM
O=C(NNC(=S)NCc1ccccc1)c1[nH]c2ccc(F)cc2c1-c1ccccc1 [Compound 6f, 4-Benzyl-1-((5-fluoro-3-phenyl-1H-indol-2-yl)carbonyl)-3-thiosemicarbazide]	> 100 mg/L	> 100 mg/L	>10 μg/mL	>10 μg/mL			
O=C(NNC(=S)NCCc1ccccc1)c1[nH]c2ccc(F)cc2c1-c1ccccc1 [Compound 6g, 1-((5-Fluoro-3-phenyl-1H-indol-2-yl)carbonyl)-4-phenethyl-3-thiosemicarbazide]	> 100 mg/L	> 100 mg/L					
CCCN1C(=O)CS/C1=N\NC(=O)c1[nH]c2ccc(F)cc2c1-c1ccccc1 [Compound 7c, 5-Fluoro-N′-(4-oxo-3-propyl-1,3-thiazolidinon-2-ylidene)-3-phenyl-1H-indol-2-carbohydrazide]	> 100 mg/L	> 100 mg/L	>100 μg/mL	>100 μg/mL	>100 μg/mL	>100 μg/mL	
CN1C(=O)CS/C1=N\NC(=O)c1[nH]c2ccc(F)cc2c1-c1ccccc1 [Compound 7a, 5-Fluoro-N′-(3-methyl-4-oxo-1,3-thiazolidinon-2-ylidene)-3-phenyl-1H-indol-2-carbohydrazide]	> 100 mg/L	> 100 mg/L	>100 μg/mL	100 μg/mL		100 μg/mL	
CCCCN1C(=O)CS/C1=N\NC(=O)c1[nH]c2ccc(F)cc2c1-c1ccccc1 [Compound 7e, N′-(3-Butyl-4-oxo-1,3-thiazolidinon-2-ylidene)-5-fluoro-3-phenyl-1H-indol-2-carbohydrazide]	> 100 mg/L	> 100 mg/L	>10 μg/mL	>10 μg/mL	>10 μg/mL	>100 μg/mL	
CCCCNC(=S)NNC(=O)c1[nH]c2ccc(F)cc2c1-c1ccccc1 [Compound 6e, 4-Butyl-1-((5-fluoro-3-phenyl-1H-indol-2-yl)carbonyl)-3-thiosemicarbazide]	> 100 mg/L	> 100 mg/L	>10 μg/mL				
CCNC(=S)NNC(=O)c1[nH]c2ccc(F)cc2c1-c1ccccc1 [Compound 6b, 4-Ethyl-1-((5-fluoro-3-phenyl-1H-indol-2-yl)carbonyl)-3-thiosemicarbazide]	> 100 mg/L	> 100 mg/L					EC50 (Sindbis virus): 3.2 ± 0.8 mg/L; Selectivity index (ratio of MCC to antiviral EC50), Respiratory syncytial virus [3]: ≥ 5
CNC(=S)NNC(=O)c1[nH]c2ccc(F)cc2c1-c1ccccc1 [Compound 6a, 1-((5-Fluoro-3-phenyl-1H-indol-2-yl)carbonyl)-4-methyl-3-thiosemicarbazide]	> 100 mg/L	> 100 mg/L					
CCN1C(=O)CS/C1=N\NC(=O)c1[nH]c2ccc(F)cc2c1-c1ccccc1 [Compound 7b, N′-(3-Ethyl-4-oxo-1,3-thiazolidinon-2-ylidene)-5-fluoro-3-phenyl-1H-indol-2-carbohydrazide]	> 100 mg/L	> 100 mg/L	>100 μg/mL	100 μg/mL		>100 μg/mL	
CCCNC(=S)NNC(=O)c1[nH]c2ccc(F)cc2c1-c1ccccc1 [Compound 6c, 1-((5-Fluoro-3-phenyl-1H-indol-2-yl)carbonyl)-4-propyl-3-thiosemicarbazide]	> 100 mg/L	> 100 mg/L			100 μg/mL		Selectivity index (ratio of MCC to antiviral EC50), Respiratory syncytial virus [3]: ≥ 9
dextran sulfate [DS-5000]					>100 μg/mL	>100 μg/mL	Antiviral EC50 value, Sindbis virus (Sindbis virus; [7]): 68 ± 32 mg/L; Selectivity index (ratio of MCC to antiviral EC50), Sindbis virus (Sindbis virus; [8]): > 1.5; Antiviral EC50 value, Vesicular stomatitis virus [4]: 8.0 ± 3.1 [>12] μg/mL; Selectivity index (ratio of MCC to antiviral EC50), Vesicular stomatitis virus [4]: 8.0 ± 3.1 [>12]; Antiviral EC50 value, Para-influenza-3 virus (Para-influenza-3 virus; [9]): >100 mg/L; Antiviral EC50 value, Coxsackie B4 virus (Coxsackie B4 virus [5]; [10]): ≥ 4 mg/L; Selectivity index (ratio of MCC to antiviral EC50), Coxsackie B4 virus (Coxsackie B4 virus [5]; value in square brackets): ≥ 25; Antiviral EC50 value, Punta Toro virus (Punta Toro virus; [7]): 20 ± 0 mg/L; Selectivity index (ratio of MCC to antiviral EC50), Punta Toro virus (Punta Toro virus; [8]): > 5; Antiviral EC50 value, Coxsackie B4 virus (Coxsackie B4 virus [6]; [10]): 40 ± 10 mg/L; Selectivity index (ratio of MCC to antiviral EC50), Coxsackie B4 virus (Coxsackie B4 virus [6]; value in square brackets): > 2.5; Antiviral EC50 value, Respiratory syncytial virus [3, 10]: 5.3 ± 3.3 mg/L; Selectivity index (ratio of MCC to antiviral EC50), Respiratory syncytial virus [3]: > 19; Antiviral EC50 value, Reovirus-1 (Reovirus-1; [9]): >100 mg/L
O=C(N/N=C1\SCC(=O)N1Cc1ccccc1)c1[nH]c2ccc(F)cc2c1-c1ccccc1 [Compound 7f, N′-(3-Benzyl-4-oxo-1,3-thiazolidinon-2-ylidene)-5-fluoro-3-phenyl-1H-indol-2-carbohydrazide]	> 100 mg/L	> 100 mg/L	>10 μg/mL	>10 μg/mL	⩾10 μg/mL	>100 μg/mL	
C=CCN1C(=O)CS/C1=N\NC(=O)c1[nH]c2ccc(F)cc2c1-c1ccccc1 [Compound 7d, N′-[(2Z)-3-Allyl-4-oxo-1,3-thiazolidinon-2-ylidene]-5-fluoro-3-phenyl-1H-indol-2-carbohydrazide]	> 100 mg/L	> 100 mg/L	>100 μg/mL	100 μg/mL	>100 μg/mL	>100 μg/mL	
C=CCNC(=S)NNC(=O)c1[nH]c2ccc(F)cc2c1-c1ccccc1 [Compound 6d, 4-Allyl-1-((5-fluoro-3-phenyl-1H-indol-2-yl)carbonyl)-3-thiosemicarbazide]	> 100 mg/L	> 100 mg/L					Selectivity index (ratio of MCC to antiviral EC50), Respiratory syncytial virus [3]: ≥ 5
O=C(N/N=C1\SCC(=O)N1CCc1ccccc1)c1[nH]c2ccc(F)cc2c1-c1ccccc1 [Compound 7g, 5-Fluoro-N′-(4-oxo-3-phenethyl-1,3-thiazolidinon-2-ylidene)-3-phenyl-1H-indol-2-carbohydrazide]	> 100 mg/L	> 100 mg/L	>10 μg/mL	>10 μg/mL		100 μg/mL	
